Reference: ChEMBL document CHEMBL1201862, “PubChem BioAssay data set” (2004)
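48-hour exposure; five concentrations; linearly interpolated endpoints. Abbreviation: GI50, concentration required for 50% inhibition of growth.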 Active and inactive are the calls of the source. Cut-off read from the data, not from the text of the source: active = GI50 up to about 1.1 µM and inactive = higher.

Assays:
Assay in all cases: inhibition of tumour cell growth, NCI panel, 48 h
CAKI-1 = tested on: CAKI-1
SN12C = tested on: SN12C
SK-MEL-28 = tested on: SK-MEL-28
U-251 = tested on: U-251
MOLT-4 = tested on: MOLT-4
SF-268 = tested on: SF-268
SK-MEL-5 = tested on: SK-MEL-5
NCI-H23 = tested on: NCI-H23
OVCAR-8 = tested on: OVCAR-8
SNB-19 = tested on: SNB-19
SK-OV-3 = tested on: SK-OV-3
COLO 205 = tested on: COLO 205
786-0 = tested on: 786-0
RPMI-8226 = tested on: RPMI-8226
SR = tested on: SR
HCT-15 = tested on: HCT-15
NCI/ADR-RES = tested on: NCI/ADR-RES
HCC 2998 = tested on: HCC 2998
UACC-257 = tested on: UACC-257
CCRF-CEM = tested on: CCRF-CEM

SMILES | GI50 (CAKI-1) | GI50 (SN12C) | GI50 (SK-MEL-28) | GI50 (U-251) | GI50 (MOLT-4) | GI50 (SF-268) | GI50 (SK-MEL-5) | GI50 (NCI-H23) | GI50 (OVCAR-8) | GI50 (SNB-19) | GI50 (SK-OV-3) | GI50 (COLO 205) | GI50 (786-0) | GI50 (RPMI-8226) | GI50 (SR) | GI50 (HCT-15) [µM] | GI50 (NCI/ADR-RES) | GI50 (HCC 2998) | GI50 (UACC-257) | GI50 (CCRF-CEM)
N#C/C(=C\NC(=S)c1ccncc1)c1nc2ccccc2s1 | > 100 µM (inactive) | > 100 µM (inactive) | > 100 µM (inactive) | 98.4 µM (inactive) | 31.2 µM (inactive) | > 100 µM (inactive) | > 100 µM (inactive) | 51.2 µM (inactive) | > 100 µM (inactive) | > 100 µM (inactive) | > 100 µM (inactive) | > 100 µM (inactive) | > 100 µM (inactive) | > 100 µM (inactive) | 74.6 µM (inactive) | > 100 | > 100 µM (inactive) | 21.7 µM (inactive) | 30.9 µM (inactive) | 
CCCC(=O)Nc1ncnc2c1ncn2C1OC2COP(=O)(O)OC2C1OC(=O)CCC (configuration not stated) | > 100 µM (inactive) | > 100 µM (inactive) | > 100 µM (inactive) | > 100 µM (inactive) | > 100 µM (inactive) | > 100 µM (inactive) | > 100 µM (inactive) | > 100 µM (inactive) | > 100 µM (inactive) | > 100 µM (inactive) | > 100 µM (inactive) | > 100 µM (inactive) | > 100 µM (inactive) | > 1000 µM (inactive) | 493 µM (inactive) | > 100 | > 100 µM (inactive) | > 100 µM (inactive) | > 100 µM (inactive) | 266 µM (inactive)
COc1ccccc1NC(=O)CC(=O)N1N=C(C)C(/N=N/c2ccc(C(=O)O)cc2)C1=O (configuration not stated) | > 100 µM (inactive) | > 100 µM (inactive) | > 100 µM (inactive) | > 100 µM (inactive) |  | > 100 µM (inactive) | > 100 µM (inactive) | > 100 µM (inactive) | > 100 µM (inactive) | > 100 µM (inactive) |  | > 100 µM (inactive) | > 100 µM (inactive) | > 100 µM (inactive) | > 100 µM (inactive) | > 100 | > 100 µM (inactive) | > 100 µM (inactive) | > 100 µM (inactive) | > 100 µM (inactive)
CCC(c1ccc2cc(O)ccc2c1)C(C)(C)C(=O)O (configuration not stated) | > 100 µM (inactive) | > 100 µM (inactive) | > 100 µM (inactive) | > 100 µM (inactive) | > 100 µM (inactive) | > 100 µM (inactive) | > 100 µM (inactive) | > 100 µM (inactive) | > 100 µM (inactive) | > 100 µM (inactive) | > 100 µM (inactive) | > 100 µM (inactive) | > 100 µM (inactive) | > 100 µM (inactive) | > 100 µM (inactive) | > 100 | > 100 µM (inactive) | > 100 µM (inactive) | > 100 µM (inactive) | 
CCC(=O)Nc1cccc(NC(=O)c2c(Cl)c(Cl)c(Cl)c(Cl)c2-c2nc3ccccc3[nH]2)c1 | 82.4 µM (inactive) | > 100 µM (inactive) | > 100 µM (inactive) |  | 22.8 µM (inactive) | 79.4 µM (inactive) | > 100 µM (inactive) | > 100 µM (inactive) | > 100 µM (inactive) | 1.03 µM (active) |  | 53.1 µM (inactive) | 84.9 µM (inactive) | 8.02 µM (inactive) | 17.6 µM (inactive) | 60.7 | > 100 µM (inactive) | 49.7 µM (inactive) | 59 µM (inactive) | 7.45 µM (inactive)
N/C(CCSCCSCC/C(N)=N\O)=N\O | > 100 µM (inactive) | > 100 µM (inactive) | > 100 µM (inactive) | > 100 µM (inactive) | > 100 µM (inactive) | > 100 µM (inactive) | > 100 µM (inactive) | > 100 µM (inactive) |  | > 100 µM (inactive) | > 100 µM (inactive) | > 100 µM (inactive) | > 100 µM (inactive) | > 100 µM (inactive) | > 100 µM (inactive) | > 100 | > 100 µM (inactive) | > 100 µM (inactive) |  | > 100 µM (inactive)
Cc1c(C)c2c(c(N)c1C#N)C(=O)N(O)C2=O | > 100 µM (inactive) | > 100 µM (inactive) | > 100 µM (inactive) | > 100 µM (inactive) | > 100 µM (inactive) | > 100 µM (inactive) | > 100 µM (inactive) | > 100 µM (inactive) | > 100 µM (inactive) | > 100 µM (inactive) | > 100 µM (inactive) | > 100 µM (inactive) | > 100 µM (inactive) | > 100 µM (inactive) | > 100 µM (inactive) | > 100 | > 100 µM (inactive) | > 100 µM (inactive) | > 100 µM (inactive) | > 100 µM (inactive)
COc1cn2c(cc1=O)COc1ccc(-c3ccccc3)cc1-2 | 43.4 µM (inactive) | 77.3 µM (inactive) | > 100 µM (inactive) | 65.2 µM (inactive) | 44.5 µM (inactive) | 60.8 µM (inactive) | 23.5 µM (inactive) | 45.5 µM (inactive) | > 76.4 µM (inactive) | 40 µM (inactive) | > 73.8 µM (inactive) | 56 µM (inactive) | > 88.1 µM (inactive) | 42.9 µM (inactive) | 15.2 µM (inactive) | 54.5 | 49.9 µM (inactive) | 46.9 µM (inactive) | 41 µM (inactive) | 
COc1cc2c(c3c1c(=O)c1ccccc1n3C)C=C([N+](=O)[O-])C(C)(C)O2 | 0.223 µM (active) |  |  | 26.8 µM (inactive) | 0.0861 µM (active) | 0.608 µM (active) | 0.0141 µM (active) | 0.395 µM (active) | 0.532 µM (active) | 1.69 µM (inactive) | 0.356 µM (active) | 0.0253 µM (active) | 0.328 µM (active) | > 31.6 µM (inactive) | 0.124 µM (active) | 0.355 | 2.09 µM (inactive) | 0.325 µM (active) | < 0.0454 µM (active) | 0.468 µM (active)
CS(=O)(=O)C[S+]([O-])C[S+]([O-])C[S+]([O-])CC(NC(=O)CCC(N)C(=O)O)C(=O)O (configuration not stated) | > 100 µM (inactive) | > 100 µM (inactive) | > 100 µM (inactive) | > 100 µM (inactive) | > 100 µM (inactive) | > 100 µM (inactive) | > 100 µM (inactive) | > 100 µM (inactive) | > 100 µM (inactive) | > 100 µM (inactive) |  | > 100 µM (inactive) | > 100 µM (inactive) | > 100 µM (inactive) | 16.3 µM (inactive) | > 100 | > 100 µM (inactive) | > 100 µM (inactive) | > 100 µM (inactive) | > 100 µM (inactive)
CCn1c(=O)c2nc(SC)sc2n(-c2ccc(C)cc2)c1=O |  | > 100 µM (inactive) | > 100 µM (inactive) | > 100 µM (inactive) | > 100 µM (inactive) | > 100 µM (inactive) | > 100 µM (inactive) | > 100 µM (inactive) | > 100 µM (inactive) | > 100 µM (inactive) | > 100 µM (inactive) | > 100 µM (inactive) | 0.401 µM (active) | > 100 µM (inactive) | > 100 µM (inactive) | > 100 | > 100 µM (inactive) | > 100 µM (inactive) | > 100 µM (inactive) | > 100 µM (inactive)
O=S(=O)(c1ccccc1)C(c1ccc2ccccc2n1)S(=O)(=O)c1ccccc1 | > 100 µM (inactive) | > 100 µM (inactive) | > 100 µM (inactive) | > 100 µM (inactive) | > 100 µM (inactive) | > 100 µM (inactive) | > 100 µM (inactive) | > 100 µM (inactive) | > 100 µM (inactive) | > 100 µM (inactive) |  | > 100 µM (inactive) | > 100 µM (inactive) | > 100 µM (inactive) | > 100 µM (inactive) | > 100 | > 100 µM (inactive) | 48.5 µM (inactive) | > 100 µM (inactive) | 
CC1N[B@@-](C)(c2ccc(C(F)(F)F)cc2)OC1c1ccccc1 (some centres not stated) |  | > 100 µM (inactive) | > 100 µM (inactive) | > 100 µM (inactive) | 29.9 µM (inactive) | > 100 µM (inactive) | 87.7 µM (inactive) | > 100 µM (inactive) | > 100 µM (inactive) | > 100 µM (inactive) | > 100 µM (inactive) | > 100 µM (inactive) | > 100 µM (inactive) | 34.7 µM (inactive) | 31.3 µM (inactive) | 49.1 | > 100 µM (inactive) | > 100 µM (inactive) | > 100 µM (inactive) | 42.6 µM (inactive)
O=C1/C(=C/c2ccc(Cl)cc2)CCCc2ccccc21 | 39.4 µM (inactive) | 18.7 µM (inactive) | 16.6 µM (inactive) | 14.2 µM (inactive) | 14.8 µM (inactive) | 13.9 µM (inactive) |  | 23.7 µM (inactive) | 17.2 µM (inactive) | 18.4 µM (inactive) | 43.1 µM (inactive) | 20.6 µM (inactive) | 17.3 µM (inactive) | 12.8 µM (inactive) | 13.6 µM (inactive) | 14 | 15.1 µM (inactive) | 22.2 µM (inactive) | 28.8 µM (inactive) | 12.5 µM (inactive)
CC1=C2CC3=C(C)C(=O)O[C@H]3C[C@@H](C)[C@@H]2CC1 [AMERICANOLIDE D] | > 100 µM (inactive) |  | > 100 µM (inactive) | > 100 µM (inactive) | 51.9 µM (inactive) | > 100 µM (inactive) | 91.8 µM (inactive) | > 100 µM (inactive) | > 100 µM (inactive) | > 100 µM (inactive) | > 100 µM (inactive) | > 100 µM (inactive) | > 100 µM (inactive) | > 100 µM (inactive) | 62.1 µM (inactive) | > 100 | > 100 µM (inactive) | > 100 µM (inactive) | > 100 µM (inactive) | 76.2 µM (inactive)
